Data published in BigSolDB 2.1.

CC1=CC(=O)c2ccccc2C1=O
solubility (mole fraction) (in benzene, 299.44 K): 0.109 | solubility (mole fraction) (in benzene, 304.83 K): 0.13 | solubility (mole fraction) (in benzene, 309.71 K): 0.152 | solubility (mole fraction) (in benzene, 313.92 K): 0.174 | solubility (mole fraction) (in benzene, 317.75 K): 0.197 | solubility (mole fraction) (in benzene, 321.86 K): 0.224 | solubility (mole fraction) (in benzene, 326.75 K): 0.262 | solubility (mole fraction) (in benzene, 330.75 K): 0.297 | solubility (mole fraction) (in benzene, 334.65 K): 0.334 | solubility (mole fraction) (in benzene, 338.96 K): 0.379 | solubility (mole fraction) (in ethylbenzene, 302.85 K): 0.0976 | solubility (mole fraction) (in ethylbenzene, 309.44 K): 0.122 | solubility (mole fraction) (in ethylbenzene, 314.77 K): 0.146 | solubility (mole fraction) (in ethylbenzene, 319.53 K): 0.173 | solubility (mole fraction) (in ethylbenzene, 323.75 K): 0.199 | solubility (mole fraction) (in ethylbenzene, 327.93 K): 0.228 | solubility (mole fraction) (in ethylbenzene, 331.75 K): 0.26 | solubility (mole fraction) (in ethylbenzene, 335.44 K): 0.297 | solubility (mole fraction) (in ethylbenzene, 339.42 K): 0.342 | solubility (mole fraction) (in ethylbenzene, 343.86 K): 0.396 | solubility (mole fraction) (in m-xylene, 301.65 K): 0.127 | solubility (mole fraction) (in m-xylene, 307.74 K): 0.151 | solubility (mole fraction) (in m-xylene, 312.76 K): 0.176 | solubility (mole fraction) (in m-xylene, 317.36 K): 0.202 | solubility (mole fraction) (in m-xylene, 321.64 K): 0.23 | solubility (mole fraction) (in m-xylene, 325.94 K): 0.258 | solubility (mole fraction) (in m-xylene, 329.73 K): 0.288 | solubility (mole fraction) (in m-xylene, 333.64 K): 0.323 | solubility (mole fraction) (in m-xylene, 337.61 K): 0.364 | solubility (mole fraction) (in m-xylene, 341.55 K): 0.411 | solubility (mole fraction) (in o-xylene, 302.95 K): 0.14 | solubility (mole fraction) (in o-xylene, 309.24 K): 0.169 | solubility (mole fraction) (in o-xylene, 314.25 K): 0.194 | solubility (mole fraction) (in o-xylene, 318.34 K): 0.219 | solubility (mole fraction) (in o-xylene, 322.45 K): 0.245 | solubility (mole fraction) (in o-xylene, 326.77 K): 0.274 | solubility (mole fraction) (in o-xylene, 330.54 K): 0.305 | solubility (mole fraction) (in o-xylene, 334.23 K): 0.34 | solubility (mole fraction) (in o-xylene, 338.32 K): 0.383 | solubility (mole fraction) (in o-xylene, 342.43 K): 0.432 | solubility (mole fraction) (in p-xylene, 302.5 K): 0.129 | solubility (mole fraction) (in p-xylene, 309.53 K): 0.158 | solubility (mole fraction) (in p-xylene, 314.64 K): 0.184 | solubility (mole fraction) (in p-xylene, 318.96 K): 0.21 | solubility (mole fraction) (in p-xylene, 323.35 K): 0.239 | solubility (mole fraction) (in p-xylene, 327.68 K): 0.269 | solubility (mole fraction) (in p-xylene, 332.02 K): 0.304 | solubility (mole fraction) (in p-xylene, 335.89 K): 0.344 | solubility (mole fraction) (in p-xylene, 340.1 K): 0.39 | solubility (mole fraction) (in p-xylene, 344.24 K): 0.44 | solubility (mole fraction) (in toluene, 303.44 K): 0.119 | solubility (mole fraction) (in toluene, 308.84 K): 0.143 | solubility (mole fraction) (in toluene, 313.63 K): 0.166 | solubility (mole fraction) (in toluene, 317.65 K): 0.189 | solubility (mole fraction) (in toluene, 321.85 K): 0.216 | solubility (mole fraction) (in toluene, 325.99 K): 0.246 | solubility (mole fraction) (in toluene, 330.04 K): 0.277 | solubility (mole fraction) (in toluene, 333.86 K): 0.311 | solubility (mole fraction) (in toluene, 337.8 K): 0.351 | solubility (mole fraction) (in toluene, 342.59 K): 0.404
